Laboratory results reported in the supplement of paper PMC11208160.

Test: recombinant UMI read abundance after kanamycin selection (control-corrected) (log10(CPM+1)); higher = more efficient recombination; extreme values may be limits of the assay; sequences stand for … in AGTGCAGAGAAAATCGGCCAGTTTTCTCTGCCTGCAGTCCGCATGCCGTGGGACCCCTTGGGTTCTAACCTGTTGCCTAGATTTATGCAGCGGACTGCCTTTCTCCCAAAGTGATAAACCGG…AGGTTGGTTTCACT; site = the 11-nt donor
Summary of the method: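 Counts of recombinant UMIs were reported as log10(CPM+1). Before that, they were converted to CPM, averaged over replicates and scaled using control-derived factors. They came from PCR across the donor–target junction after Escherichia coli carrying the pair library and target plasmid was plated on IPTG (0.07 mM) plus kanamycin, or unselected, in two replicates each.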
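Also: IS621 bridge recombinase in Escherichia coli cells against a fixed T5 target plasmid.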

Row | Sequence | recombinant UMI read abundance (log10)
1 | TCATTATCATGGACCGGTTTTCCCGGTAATCCGTATTTGCA (site TCATTATCTTG) | 1.7
2 | TCATTCTCATGGACCGGTTTTCCCGGTAATCCGTATTTGCT (site TCATTCTCTAG) | 0.981
3 | TCATTGCCATGGACCGGTTTTCCCGGTAATCCGTATTTGAG (site TCATTGCCTCT) | 0.00408
4 | TCATTTACATGGACCGGTTTTCCCGGTAATCCGTATTTGGA (site TCATTTACTTC) | 0.164
5 | TCCAATACATGGACCGGTTTTCCCGGTAATCCGTATTTGCC (site TCCAATACTGG) | 0
6 | TCCAATACATGGACCGGTTTTCCCGGTAATCCGTATTTGCC (site TCCAATCCTGG) | 0
7 | TCCAATACATGGACCGGTTTTCCCGGTAATCCGTATTTGCC (site TCCAATGCTGG) | 0
8 | TCCAATACATGGACCGGTTTTCCCGGTAATCCGTATTTGCC (site TCCAATTCTGG) | 0
9 | TCCAATCCATGGACCGGTTTTCCCGGTAATCCGTATTTGCC (site TCCAATACTGG) | 0
10 | TCCAATCCATGGACCGGTTTTCCCGGTAATCCGTATTTGCC (site TCCAATCCTGG) | 0
11 | TCCAATCCATGGACCGGTTTTCCCGGTAATCCGTATTTGCC (site TCCAATGCTGG) | 0
12 | TCCAATCCATGGACCGGTTTTCCCGGTAATCCGTATTTGCC (site TCCAATTCTGG) | 0
13 | TCCAATTCATGGACCGGTTTTCCCGGTAATCCGTATTTGGC (site TCCAATTCTGA) | 0
14 | TCCAATTCATGGACCGGTTTTCCCGGTAATCCGTATTTGGC (site TCCAATTCTGC) | 0
15 | TCCAATTCATGGACCGGTTTTCCCGGTAATCCGTATTTGGC (site TCCAATTCTGG) | 0
16 | TCCAATTCATGGACCGGTTTTCCCGGTAATCCGTATTTGGC (site TCCAATTCTGT) | 0
17 | TCCACCGCATGGACCGGTTTTCCCGGTAATCCGTATTTGCT (site TCCACCGCTAG) | 0
18 | TCCACCGCATGGACCGGTTTTCCCGGTAATCCGTATTTGCT (site TCCACCGCTCG) | 0.0171
19 | TCCACCGCATGGACCGGTTTTCCCGGTAATCCGTATTTGCT (site TCCACCGCTGG) | 0

Row | Sequence | recombinant UMI read abundance (log10)
20 | TCCACCGCATGGACCGGTTTTCCCGGTAATCCGTATTTGCT (site TCCACCGCTTG) | 0
21 | TCCACGCCATGGACCGGTTTTCCCGGTAATCCGTATTTGCC (site TCCACGCCTGG) | 0
22 | TCCACTTCATGGACCGGTTTTCCCGGTAATCCGTATTTGAG (site TCCACTTCTCT) | 0.0133
23 | TCCAGTGCATGGACCGGTTTTCCCGGTAATCCGTATTTGGT (site TCCAGTGCTAC) | 0.00561
24 | TCCATAGCATGGACCGGTTTTCCCGGTAATCCGTATTTGTA (site TCCATAGCTTA) | 0.0478
25 | TCCATTTCATGGACCGGTTTTCCCGGTAATCCGTATTTGCC (site TCCAATTCTGG) | 0
26 | TCCATTTCATGGACCGGTTTTCCCGGTAATCCGTATTTGCC (site TCCACTTCTGG) | 0
27 | TCCATTTCATGGACCGGTTTTCCCGGTAATCCGTATTTGCC (site TCCAGTTCTGG) | 0
28 | TCCCAATCATGGACCGGTTTTCCCGGTAATCCGTATTTGTG (site TCCCAATCTCA) | 0.00796
29 | TCCCACCCATGGACCGGTTTTCCCGGTAATCCGTATTTGAG (site TCCCACCCTCT) | 0.00907
30 | TCCCATCCATGGACCGGTTTTCCCGGTAATCCGTATTTGGC (site TCCCATCCTGC) | 0
31 | TCCCCAACATGGACCGGTTTTCCCGGTAATCCGTATTTGTC (site TCCCCAACTGA) | 0
32 | TCCCCTGCATGGACCGGTTTTCCCGGTAATCCGTATTTGAT (site TCCCCTGCTAT) | 0.00458
33 | TCCCGACCATGGACCGGTTTTCCCGGTAATCCGTATTTGAG (site TCCCGACCTCT) | 0.00764
34 | TCCCGGACATGGACCGGTTTTCCCGGTAATCCGTATTTGTC (site TCCCGGACTGA) | 0.905
35 | TCCCGTTCATGGACCGGTTTTCCCGGTAATCCGTATTTGAA (site TCCCGTTCTTT) | 0
36 | TCCCTACCATGGACCGGTTTTCCCGGTAATCCGTATTTGAT (site TCCCTACCTAT) | 0
37 | TCCCTTCCATGGACCGGTTTTCCCGGTAATCCGTATTTGAG (site TCCCTTCCTCT) | 0.0101
38 | TCCGATGCATGGACCGGTTTTCCCGGTAATCCGTATTTGTT (site TCCGATGCTAA) | 0

Row | Sequence | recombinant UMI read abundance (log10)
39 | TCCGGGCCATGGACCGGTTTTCCCGGTAATCCGTATTTGAC (site TCCGGGCCTGT) | 0
40 | TCCGTCCCATGGACCGGTTTTCCCGGTAATCCGTATTTGCA (site TCCGTCCCTTG) | 0
41 | TCCTAATCATGGACCGGTTTTCCCGGTAATCCGTATTTGTT (site TCCTAATCTAA) | 0
42 | TCCTAGACATGGACCGGTTTTCCCGGTAATCCGTATTTGGG (site ACCTAGACTCC) | 0.034
43 | TCCTAGACATGGACCGGTTTTCCCGGTAATCCGTATTTGGG (site CCCTAGACTCC) | 0.0212
44 | TCCTAGACATGGACCGGTTTTCCCGGTAATCCGTATTTGGG (site GCCTAGACTCC) | 0.0199
45 | TCCTAGACATGGACCGGTTTTCCCGGTAATCCGTATTTGGG (site TCCTAGACTCC) | 0.00458
46 | TCCTAGTCATGGACCGGTTTTCCCGGTAATCCGTATTTGTA (site TCCTAGTCTTA) | 0.256
47 | TCCTATACATGGACCGGTTTTCCCGGTAATCCGTATTTGGA (site TCCTATACTTC) | 0.0113
48 | TCCTCATCATGGACCGGTTTTCCCGGTAATCCGTATTTGGA (site TCCTCATCTTC) | 0.00521
49 | TCCTTATCATGGACCGGTTTTCCCGGTAATCCGTATTTGTT (site TCCTTATCTAA) | 0
50 | TCCTTTGCATGGACCGGTTTTCCCGGTAATCCGTATTTGTG (site TCCTTTGCTCA) | 0.0203
51 | TCGAAAACATGGACCGGTTTTCCCGGTAATCCGTATTTGTT (site TCGAAAACTAA) | 0
52 | TCGAATTCATGGACCGGTTTTCCCGGTAATCCGTATTTGCC (site TCAAATTCTGG) | 0
53 | TCGAATTCATGGACCGGTTTTCCCGGTAATCCGTATTTGCC (site TCCAATTCTGG) | 0
54 | TCGAATTCATGGACCGGTTTTCCCGGTAATCCGTATTTGCC (site TCGAATTCTGG) | 0
55 | TCGAATTCATGGACCGGTTTTCCCGGTAATCCGTATTTGCC (site TCTAATTCTGG) | 0.193
56 | TCGACACCATGGACCGGTTTTCCCGGTAATCCGTATTTGGC (site TCGACACCTGC) | 0
57 | TCGACGGCATGGACCGGTTTTCCCGGTAATCCGTATTTGAG (site TCGACGGCTCT) | 0.666
